Results on 20 compounds are retold here after US12220415B2, “WEE1 kinase inhibitors and methods of treating cancer using the same” (The Regents of the University of Colorado, A Body Corporate, priority 2018, dated 2025).

One test concerns the target recombinant WEE1 kinase (Homo sapiens (Human), UniProt P30291). Briefly: LanthaScreen Eu TR-FRET kinase binding assay for WEE1 kinase inhibitory activity. The conditions noted are these: Kinase Tracer 178, 1 hour at room temperature. As for the experimental part: A LanthaScreen™ kinase activity assay was conducted to assess WEE1 kinase inhibitory activity for compounds of this disclosure. […] All reagents were prepared as solutions in 1× kinase buffer A (Invitrogen) at 3× final desired concentration. […] Inhibitors were assayed in the final concentration range of 0.04 nM to 10 μM.
In general terms: Time-resolved FRET reads energy transfer from a long-lived donor to a nearby acceptor.

Another test deals with medulloblastoma cells. The conditions noted are these: Mol Cancer. 2014, 13:72, cited from earlier work.
In another test the test system is Daoy cells. As to the kind of experiment: MTS cell viability assay in Daoy cells. Type of test: cell-based, human. The conditions noted are these: for EC50: read-out: EC50 cellular metabolic viability, Daoy; for activity at 0.6 µM: at 600 nM; for inhibition at 0.6 µM: 72 hr, @ 600 nM, read-out: percent cell inhibition, DAOY. On the procedure:
(§1) FIG. 1A is a dose-response study for ONS-76 cells treated with a concentration range of WEE1 inhibitors for 72 hours in an MTS assay. […] FIG. 1B is a dose-response study for Daoy cells treated with a concentration range of WEE1 inhibitors for 72 hours in an MTS assay.
(§2) To evaluate the effect of the WEE1 kinase inhibitors, Daoy cells and ONS-76 cells (human primary medulloblastoma cell lines) were treated with test compounds and cell growth was by MTS assay (FIGS. 1A and 1B). […] Cells were incubated for 72 hr with 50 μL of each diluted drug solution. Cell viability was measured by 2 hr incubation with 30 μL CellTiter 96® AQueous One Cell Proliferation reagent (Promega) and formazan concentration assessed through colorimetric analysis using a BioTek Synergy H1 plate reader (Absorption=490 nm).
(Tetrazolium dyes change colour on reduction, which living cells bring about.)

The test system of another test is ONS-76 cells. Briefly: MTS cell viability assay in ONS-76 cells. The test is classed as cell-based. The conditions noted are these: Homo sapiens; for EC50: read-out: EC50 cellular metabolic viability, ONS-76; for IC50: read-out: Mean IC50, ONS-76; for inhibition at 1.16 µM: @ 1160 nM, read-out: percent cell inhibition, ONS-76. On the procedure:
as §1, §2

The test system of test [1] is pCDK1 (Tyr15) in Daoy cell lysates. As to the kind of experiment: pCDK1 (Tyr15) ELISA in Daoy cell lysates. The test is classed as cell-based, human. Conditions: 24 hours, single 220 nM dose. As for the experimental part:
WEE1 inactivates CDC2 through selective phosphorylation of the Tyr15 residue of cyclin-dependent kinase 1 (CDK1) stabilizing the CDC2-cyclin B complex. Therefore, inhibition of WEE1 kinase activity will prevent the phosphorylation of its substrate CDK1 at Tyr15. […] Following drug incubation, the media was aspirated from cells before cells were trypsinized and resuspended in TES/SB buffer containing protease inhibitors. Cells were lysed on ice through sonication, and cell lysates were diluted with ELISA Pathscan® sample diluent to a final volume of 100 μL and protein concentration of 0.05 mg/ml prior to use. The relative concentration of p-CDK1 Tyr15 was determined using an enzyme-linked immunosorbent assay according to recommended protocol (Cell Signaling, ELISA Pathscan® phosphor-Cdc2 (Tyr15)).
Background: ELISA stands for enzyme-linked immunosorbent assay.

For test [2], the system named is murine AML-expressing MLL-ENL, FLT3-ITD, and luciferase. Briefly: Murine AML model, disease progression by luciferase expression. Conditions: mice with AML, cytarabine alone. The test is classed as in vivo. On the procedure:
In a second toxicity study, mice without leukemia were treated with cytarabine and/or a WEE1 inhibitor for 5 of 7 days for 3 consecutive weeks. […] The inventors then used an aggressive model of murine AML-expressing MLL-ENL, FLT3-ITD, and luciferase, to determine whether WEE1 inhibition would enhance the anti-leukemia effects of cytarabine.

The mark [3] stands for this setting: Homo sapiens, Daoy cells, 72 hours, MTS assay.
The mark [4] stands for this setting: Homo sapiens, Daoy cells, MTS assay.
The mark [5] stands for this setting: ONS-76 cells, 72 hours, MTS assay, n=3, ±=S.D.

Read-outs that look alike come from different tables or passages of the source.

Chain of recombinant WEE1 kinase (P30291 whole entry): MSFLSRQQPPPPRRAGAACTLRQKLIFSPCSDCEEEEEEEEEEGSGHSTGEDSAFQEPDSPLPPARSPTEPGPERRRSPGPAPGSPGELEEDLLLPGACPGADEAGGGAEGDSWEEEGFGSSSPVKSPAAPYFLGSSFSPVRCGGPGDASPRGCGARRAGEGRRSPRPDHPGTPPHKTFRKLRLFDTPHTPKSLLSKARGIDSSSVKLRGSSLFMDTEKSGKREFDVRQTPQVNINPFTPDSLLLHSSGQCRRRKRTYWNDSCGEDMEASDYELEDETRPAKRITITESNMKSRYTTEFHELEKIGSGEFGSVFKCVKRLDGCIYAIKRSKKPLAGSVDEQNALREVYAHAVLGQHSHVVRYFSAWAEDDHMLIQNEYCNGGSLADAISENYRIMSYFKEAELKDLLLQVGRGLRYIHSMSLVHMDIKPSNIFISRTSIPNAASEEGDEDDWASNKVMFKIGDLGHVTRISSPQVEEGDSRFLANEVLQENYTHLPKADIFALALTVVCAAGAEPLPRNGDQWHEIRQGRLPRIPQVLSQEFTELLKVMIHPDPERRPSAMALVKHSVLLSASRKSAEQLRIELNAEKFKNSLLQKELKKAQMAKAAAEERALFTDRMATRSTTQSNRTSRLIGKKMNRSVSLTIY

Broadly, the IC50 is the concentration that gives 50% inhibition. With `C=CCn1c(=O)c2cnc(N)nc2n1-c1cccc(C(C)(C)O)n1`, the IC50 at recombinant WEE1 kinase was 17.7 nM.

Take `C=CCn1c(=O)c2cnc(NCc3ccc(CC)cc3)nc2n1-c1cccc(C(C)(C)O)n1`: the IC50 on recombinant WEE1 kinase stood at 13.6 nM.

Consider `C=CCn1c(=O)c2cnc(Nc3cccc(C#N)c3)nc2n1-c1cccc(C(C)(C)O)n1`, for which the half-inhibitory concentration (IC50) at recombinant WEE1 kinase stood at 78.1 nM.

With `C=CCn1c(=O)c2cnc(Nc3cccc(C(=O)N(C)C)c3)nc2n1-c1cccc(C(C)(C)O)n1`, the IC50 on recombinant WEE1 kinase was determined as 27.3 nM.

With `COc1ccc(Cn2c(=O)c3cnc(Nc4ccc(N5CCN(C)CC5)cc4)nc3n2-c2cccc(C(C)(C)O)n2)cc1`, at recombinant WEE1 kinase, the 50% inhibitory concentration (IC50) was 89.7 nM.

Consider `C=C(C)c1cccc(-n2c3nc(Nc4ccc(N5CCN(C)CC5)cc4)ncc3c(=O)n2C)n1`, for which the IC50 on recombinant WEE1 kinase turned out to be 179 nM.

Consider `C=CCn1c(=O)c2cnc(Nc3ccc(N4CCN(C)CC4)cc3)nc2n1-c1cccc(CO)c1`, for which the IC50 on recombinant WEE1 kinase was 10.4 nM.

In general, EC50 refers to the concentration that produces a half-maximal response. On to `C=CCn1c(=O)c2cnc(Nc3ccc(N4CCN(C)CC4)cc3)nc2n1-c1cccc(C(C)(C)O)n1` [AZD1775, 2-allyl-1-(6-(2-hydroxypropan-2-yl)pyridin-2-yl)-6-((4-(4-methylpiperazin-1-yl)phenyl)amino)-1,2-dihydro-3H-pyrazolo[3,4-d]pyrimidin-3-one, reference compound], for which, in the test on medulloblastoma cells (medulloblastoma cells), the “activity in combination with cisplatin” value was “synergistic activity”. The “single agent effect in medulloblastoma” value in the test with medulloblastoma cells (single agent) was “suppressed cell growth, induced apoptosis, and decreased tumor growth”. Besides, the EC50 in the test on Daoy cells (Homo sapiens, Daoy, 72 h) was 150 nM; with Daoy cells (Daoy cells, 72 hours, MTS assay, n=3, ±=S.D.), 179 ± 16 nM; in the test with ONS-76 cells (ONS-76, 72 h), 290 nM. The IC50 with Daoy cells (Homo sapiens, Daoy, 72 h, read-out: Mean IC50, DAOY) worked out at 378 nM; with ONS-76 cells (ONS-76, 72 h) it was 221 nM. Further, the “pCDK1(Tyr15) level compared to DMSO control” value in test [1] is listed as “decrease”.

As usually defined, the inhibition is the change of the read-out against control, counted positive when it falls. On to `C=CCn1c(=O)c2cnc(Nc3ccc(N4CCN(C)CC4)cc3)nc2n1-c1cccc(C(C)(C)O)c1` [CM-169, 2-allyl-1-(3-(2-hydroxypropan-2-yl)phenyl)-6-((4-(4-methylpiperazin-1-yl)phenyl)amino)-1,2-dihydro-3H-pyrazolo[3,4-d]pyrimidin-3-one], for which the inhibition at 1.16 µM in the test on ONS-76 cells (ONS-76 cells, 72 hr, MTS assay) was 61%. In addition, in test [1], the “pCDK1(Tyr15) level compared to DMSO control” value is “statistically the same as that for AZD1775”.

As to `C=CCn1c(=O)c2cnc(Nc3ccc(N4CCN(C)CC4)cc3)nc2n1-c1cccc(CO)n1` [CM-170, 2-allyl-1-(6-(hydroxymethyl)pyridin-2-yl)-6-((4-(4-methylpiperazin-1-yl)phenyl)amino)-1,2-dihydro-3H-pyrazolo[3,4-d]pyrimidin-3-one], the inhibition at 1.16 µM in the test on ONS-76 cells (ONS-76 cells, 72 hr, MTS assay) is 59%.

Regarding `C=CCn1c(=O)c2cnc(Nc3ccc(OCCN(C)C)cc3)nc2n1-c1cccc(C(C)(C)O)n1` [CM-181, 2-allyl-6-((4-(2-(dimethylamino)ethoxy)phenyl)amino)-1-(6-(2-hydroxypropan-2-yl)pyridin-2-yl)-1,2-dihydro-3H-pyrazolo[3,4-d]pyrimidin-3-one], the activity at 0.6 µM in the test with Daoy cells (setting [3]) worked out at 81%. Besides, the inhibition at 0.6 µM with Daoy cells (setting [4]) amounted to 82%. For the same compound, in the test on ONS-76 cells (setting [5]), the EC50 was 203 ± 40 nM. The IC50 in the test on ONS-76 cells (ONS-76 cells, 72 hr, MTS assay) worked out at 273 nM. Further, the “pCDK1(Tyr15) level compared to DMSO control” value in test [1] is “decrease”.

Turning to `C=CCn1c(=O)c2cnc(Nc3cccc(CN(C)C)c3)nc2n1-c1cccc(C(C)(C)O)n1` [KAC-014, 2-allyl-6-((3-((dimethylamino)methyl)phenyl)amino)-1-(6-(2-hydroxypropan-2-yl)pyridin-2-yl)-1,2-dihydro-3H-pyrazolo[3,4-d]pyrimidin-3-one], in the test on ONS-76 cells (ONS-76 cells, 72 hr, MTS assay), the inhibition at 1.16 µM was determined as 40%.

For the compound `C=CCn1c(=O)c2cnc(Nc3ccccc3)nc2n1-c1cccc(C(C)(C)O)n1` [KAC-017, 2-allyl-1-(6-(2-hydroxypropan-2-yl)pyridin-2-yl)-6-(phenylamino)-1,2-dihydro-3H-pyrazolo[3,4-d]pyrimidin-3-one], in the test on ONS-76 cells (ONS-76 cells, 72 hr, MTS assay), the inhibition at 1.16 µM is 32%.

As to `C=CCn1c(=O)c2cnc(Nc3cccc(N(C)C)c3)nc2n1-c1cccc(C(C)(C)O)n1` [KAC-019, 2-allyl-6-((3-(dimethylamino)phenyl)amino)-1-(6-(2-hydroxypropan-2-yl)pyridin-2-yl)-1,2-dihydro-3H-pyrazolo[3,4-d]pyrimidin-3-one], the inhibition at 1.16 µM in the test on ONS-76 cells (ONS-76 cells, 72 hr, MTS assay) worked out at 33%.

In the case of `C=CCn1c(=O)c2cnc(Nc3ccc(CCN(C)C)cc3)nc2n1-c1cccc(C(C)(C)O)n1` [KAC-034, 2-allyl-6-((4-(2-(dimethylamino)ethyl)phenyl)amino)-1-(6-(2-hydroxypropan-2-yl)pyridin-2-yl)-1,2-dihydro-3H-pyrazolo[3,4-d]pyrimidin-3-one], the activity at 0.6 µM with Daoy cells (setting [3]) came out at 84%. Also, the inhibition at 0.6 µM in the test with Daoy cells (setting [4]) was 83%. Moreover, the concentration giving a half-maximal response (EC50) in the test on ONS-76 cells (setting [5]) is 252 ± 9 nM. The IC50 in the test with ONS-76 cells (ONS-76 cells, 72 hr, MTS assay) worked out at 495 nM. For the same compound, the “pCDK1(Tyr15) level compared to DMSO control” value in test [1] is “decrease”.

In the case of `Nc1ccn([C@@H]2O[C@H](CO)[C@@H](O)[C@@H]2O)c(=O)n1` [cytarabine], the “leukemia progression, measured by luciferase expression over time” value in test [2] is “slowed the progression of the leukemia”.

For `C=CCn1c(=O)c2cnc(Nc3ccccc3)nc2n1-c1cccc(C(C)(C)O)n1` [drawing 14], the IC50 on recombinant WEE1 kinase amounted to 9.6 nM.

Regarding `C=CCn1c(=O)c2cnc(Nc3cccc(CN(C)C)c3)nc2n1-c1cccc(C(C)(C)O)n1` [drawing 18], the IC50 at recombinant WEE1 kinase was determined as 9.1 nM.

For `C=CCn1c(=O)c2cnc(Nc3ccc(CCN(C)C)cc3)nc2n1-c1cccc(C(C)(C)O)n1` [drawing 20], the IC50 on recombinant WEE1 kinase worked out at 1.8 nM.

For `C=CCn1c(=O)c2cnc(Nc3ccc(OCCN(C)C)cc3)nc2n1-c1cccc(C(C)(C)O)n1` [drawing 21], the IC50 at recombinant WEE1 kinase was 7.8 nM.
